Values quoted from earlier work in patent US5912253A, “Rapamycin derivatives” (Novartis AG, priority 1993, dated 1999).

Tests used:
[1] = test system: macrophilin-12 (FK-506 binding protein or FKBP-12)
[2] = in vivo

For `C=CC[C@@H]1/C=C(\C)C[C@H](C)C[C@H](OC)[C@H]2O[C@@](O)(C(=O)C(=O)N3CCCC[C@H]3C(=O)O[C@H](/C(C)=C/[C@@H]3CC[C@@H](O)[C@H](OC)C3)[C@H](C)[C@@H](O)CC1=O)[C@H](C)C[C@@H]2OC` [FK-506], which “binding in vivo to macrophilin-12” value [1] is on record?
The value was “known to bind in vivo to macrophilin-12”.

What does the source list for `CO[C@H]1C[C@@H]2CC[C@@H](C)[C@@](O)(O2)C(=O)C(=O)N2CCCC[C@H]2C(=O)O[C@H]([C@H](C)C[C@@H]2CC[C@@H](O)[C@H](OC)C2)CC(=O)[C@H](C)/C=C(\C)[C@@H](O)[C@@H](OC)C(=O)[C@H](C)C[C@H](C)/C=C/C=C/C=C/1C` [Rapamycin, rapamycin]?
binding in vivo to macrophilin-12 [1]: known to bind in vivo to macrophilin-12; bioavailability [2]: very low and variable; solubility: highly insoluble
